Test results taken from patent US5449612A, “Process for identifying candida by means of chromogenic substances” (Serbio, priority 1990, dated 1995).
Non-standard residues stand in square brackets, D forms with d. Residues, ends and D or L forms follow the SMILES beside them. *: point of attachment. Hyp = O=C(O)[C@@H]1C[C@@H](O)CN1; pNA = O=[N+]([O-])c1ccc(N*)cc1; Phg = N[C@H](C(=O)O)c1ccccc1; Pip = O=C(O)[C@@H]1CCCCN1; Boc = CC(C)(C)OC(=O)*

Experiments:
Candida tropicalis = assay: Tests on substrates against Candida tropicalis, colour reading on buffered gelose; type: cell-based; parameters: C. TROPICALIS reading at 48 h: key to the marks not given beside the values; conditions: for C. TROPICALIS reading at 24 h: Table III, medium pH 6.0
Candida guillermondii = assay: Tests on substrates against Candida guillermondii; parameters: Reading at 24 h: key to the marks not given beside the values; conditions: for Reading at 24 h: Table V
T. glabrata = assay: Tests on substrates against T. glabrata, colour reading on buffered gelose; for T. GLABRATA reading at 24 h: key: -: none; +: weak; ++: moderate; +++: intense; ++++: very intense; type: cell-based, Torulopsis glabrata; parameters: T. GLABRATA reading at 48 h: key: -: none; +: weak; ++: moderate; +++: intense; ++++: very intense
Candida krusei = assay: Tests on substrates against Candida krusei, colour reading on buffered gelose; for reading at 24 h: key: -: none; +: weak; ++: moderate; +++: intense; ++++: very intense; type: cell-based; parameters: key to Specificity: interference with C. krusei: (a): interference with C. albicans (++++); (b): interference with C. krusei (++); (c): interference with C. tropicalis (++); conditions: for Reading at 24 h: Table IV, medium pH 6.0
C. tropicalis = assay: Diagnosis from isolated colonies on gelose 2/5; type: cell-based, Candida tropicalis
Candida albicans = assay: Tests on substrates against Candida albicans, colour reading on buffered gelose; type: cell-based; conditions: Table I; medium pH 6.0, YNB, glucose, agar, gentamycin; coloration or fluorescence

Compound	C. TROPICALIS reading at 24 h (Candida tropicalis)	T. GLABRATA reading at 24 h (T. glabrata; Table III, medium pH 6.0)	Reading at 24 h (Candida albicans)	Specificity: interference with C. tropicalis (Candida tropicalis; Table I)	further results
CC(C)C[C@H](NC(=O)OC(C)(C)C)C(=O)N[C@@H](CO)C(=O)N[C@H](C(=O)N[C@@H](CCCNC(=N)N)C(=O)Nc1ccc([N+](=O)[O-])cc1)[C@@H](C)O [Boc-L-Leu-L-Ser-L-Thr-L-Arg-pNA.AcOH] (Boc-LSTR-pNA)					Specificity: interference with C. tropicalis (Candida tropicalis; Table V): (c); Reading at 24 h (Candida guillermondii): ++++
Boc-L-Hyp-L-Pro-L-Arg-pNA.AcOH	+	-			
H-L-ONC-L-Arg-pNA.AcOH					Reading at 24 h (Candida krusei): ++; Specificity: interference with C. krusei (Candida krusei; Table V): (b); Specificity: interference with C. guillermondii (Candida guillermondii; Table IV): (e); Reading at 24 h (Candida guillermondii): ++++
MM-L-Phg-L-Arg-pNA.AcOH	++	+ +++			
NCC(=O)N1CCC[C@H]1C(=O)Nc1ccc([N+](=O)[O-])cc1 [H-Gly-L-Pro-pNA.AcOH] (H-Gly-Pro-pNA)					hydrolysis by the strains of C. tropicalis (C. tropicalis): hydrolyzed
BzNH-L-Ala-Gly-L-Arg-pNA.AcOH	+++	-			
CC(C)(C)OC(=O)N1C[C@H](O)C[C@H]1C(=O)N1CCC[C@H]1C(=O)N[C@@H](CCCNC(=N)N)C(=O)Nc1ccc([N+](=O)[O-])cc1 [Boc-L-4Hyp-L-Pro-L-Arg-pNA.AcOH] (Boc-[Hyp]-Pro-Arg-pNA)			++++	(b)	
CC(C)(C)OC(=O)NCC(=O)N1CCC[C@H]1C(=O)N[C@@H](CCCNC(=N)N)C(=O)Nc1ccc([N+](=O)[O-])cc1 [Boc-Gly-L-Pro-L-Arg-pNA.AcOH] (Boc-Gly-Pro-Arg-pNA)	+		++	(b)	Specificity: interference with C. tropicalis (Candida tropicalis; Table IV): (b); Specificity: interference with T. glabrata (T. glabrata): (e) and (f); T. GLABRATA reading at 24 h (T. glabrata; pH 6): +++; Reading at 24 h (Candida krusei): -; Specificity: interference with C. guillermondii (Candida guillermondii; Table I): (d)
N=C(N)NCCC[C@H](NC(=O)[C@@H]1CCCN1C(=O)[C@@H]1CCCN1)C(=O)Nc1ccc([N+](=O)[O-])cc1 [H-L-Pro-L-Pro-L-Arg-pNA.2AcOH] (H-Pro-Pro-Arg-pNA)			+++	(b)	Reading at 24 h (Candida tropicalis; Table II, medium pH 6.0, YNB, glucose, agar, gentamycin): ++++; Specificity: interference with C. tropicalis (Candida tropicalis; Table IV): (a); Reading at 24 h (Candida krusei): -
N=C(N)NCCC[C@H](NC(=O)[C@@H]1CCCN1C(=O)CNC(=O)CN)C(=O)Nc1ccc([N+](=O)[O-])cc1 [H-Gly-Gly-L-Pro-L-Arg-pNA.2AcOH] (H-GGPR-pNA)	+				Specificity: interference with C. tropicalis (Candida tropicalis; Table IV): (d); T. GLABRATA reading at 24 h (T. glabrata; pH 6): +; Reading at 24 h (Candida krusei): ++
BzNH-D-Ala-Gly-L-Arg-pNA.AcOH	++	-			
EM-L-Hyp-L-Arg-pNA.AcOH	++	-			C. TROPICALIS reading at 48 h (Candida tropicalis; Table III footnotes): +++; T. GLABRATA reading at 48 h (T. glabrata; Table III footnotes): +++
N=C(N)NCCC[C@H](NC(=O)[C@@H]1CCCCN1C(=O)CN)C(=O)Nc1ccc([N+](=O)[O-])cc1 [H-Gly-L-Pip-L-Arg-pNA.2AcOH] (H-Gly-[Pip]-Arg-pNA)			++	(b)	
N=C(N)NCCC[C@H](NC(=O)[C@@H]1CCCN1C(=O)CNC(=O)[C@H]1CCCN1)C(=O)Nc1ccc([N+](=O)[O-])cc1 [H-D-Pro-Gly-L-Pro-L-Arg-pNA.2AcOH] (H-[dP]GPR-pNA)	+				T. GLABRATA reading at 24 h (T. glabrata; pH 6): +
N=C(N)NCCC[C@H](NC(=O)[C@@H](NC(=O)[C@H]1CCCN1)c1ccccc1)C(=O)Nc1ccc([N+](=O)[O-])cc1 [H-D-Pro-L-Phg-L-Arg-pNA.2AcOH] (H-[dP]-[Phg]-Arg-pNA)	++				T. GLABRATA reading at 24 h (T. glabrata; pH 6): -
N=C(N)NCCC[C@H](NC(=O)[C@@H]1CCCN1C(=O)[C@@H]1C[C@@H](O)CN1)C(=O)Nc1ccc([N+](=O)[O-])cc1 [H-L-4Hyp-L-Pro-L-Arg-pNA.2AcOH] (H-[Hyp]-Pro-Arg-pNA)			++++	(b)	
